# Measurements published in the supplement of paper PMC10307832.
# Experiments:
# Experiment in all cases: relative viability (nuclei count vs DMSO), 5 days (fraction); higher = more cells survive
# Ibrutinib + Dasatinib = compound: C=CC(=O)N1CCC[C@@H](n2nc(-c3ccc(Oc4ccccc4)cc3)c3c(N)ncnc32)C1 [Ibrutinib] + Cc1nc(Nc2ncc(C(=O)Nc3c(C)cccc3Cl)s2)cc(N2CCN(CCO)CC2)n1 [Dasatinib] (partner 0.075 µM)
# How it was run: (§1)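 Values are medians from duplicate plates. Each reflects relative viability, defined as the nuclei count of treated wells over that of vehicle wells. Lung cancer cell lines in 1536-well plates were pin-tool dosed one day after seeding with one drug alone or with a fixed anchor-drug dose plus five library-drug doses (not always all listed) in √10 steps, then fixed, stained and imaged at 4× after 5 days.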
# BMX-IN-1 + OSI-027 = compound: C=CC(=O)Nc1cc(-n2c(=O)ccc3cnc4ccc(-c5ccc(NS(C)(=O)=O)cc5)cc4c32)ccc1C [BMX-IN-1] + COc1cccc2cc(-c3nc([C@H]4CC[C@H](C(=O)O)CC4)n4ncnc(N)c34)[nH]c12 [OSI-027] (partner 0.5 µM)
# How it was run: as §1
# PAC-1 + Foretinib = compound: C=CCc1cccc(/C=N/NC(=O)CN2CCN(Cc3ccccc3)CC2)c1O [PAC-1] + COc1cc2c(Oc3ccc(NC(=O)C4(C(=O)Nc5ccc(F)cc5)CC4)cc3F)ccnc2cc1OCCCN1CCOCC1 [Foretinib] (partner 0.25 µM)
# How it was run: as §1
# PAC-1 + Lapatinib = compound: C=CCc1cccc(/C=N/NC(=O)CN2CCN(Cc3ccccc3)CC2)c1O [PAC-1] + CS(=O)(=O)CCNCc1ccc(-c2ccc3ncnc(Nc4ccc(OCc5cccc(F)c5)c(Cl)c4)c3c2)o1 [Lapatinib] (partner 2 µM)
# How it was run: as §1
Cell Line,relative viability (Ibrutinib + Dasatinib; first compound 0.005 µM),relative viability (Ibrutinib + Dasatinib; first compound 0.01581 µM),relative viability (Ibrutinib + Dasatinib; first compound 0.05 µM),relative viability (Ibrutinib + Dasatinib; first compound 0.1581 µM),relative viability (Ibrutinib + Dasatinib; first compound 0.5 µM),relative viability (BMX-IN-1 + OSI-027; first compound 0.02 µM),relative viability (BMX-IN-1 + OSI-027; first compound 0.2 µM),relative viability (BMX-IN-1 + OSI-027; first compound 0.6325 µM),relative viability (BMX-IN-1 + OSI-027; first compound 2 µM),relative viability (PAC-1 + Foretinib; first compound 0.02 µM),relative viability (PAC-1 + Foretinib; first compound 0.06325 µM),relative viability (PAC-1 + Foretinib; first compound 0.2 µM),relative viability (PAC-1 + Foretinib; first compound 2 µM),relative viability (PAC-1 + Lapatinib; first compound 0.02 µM),relative viability (PAC-1 + Lapatinib; first compound 0.06325 µM),relative viability (PAC-1 + Lapatinib; first compound 0.2 µM),relative viability (PAC-1 + Lapatinib; first compound 2 µM)
HOP-62,0.664,0.517,0.708,0.563,0.648,1.01,1.16,1.03,0.817,1.1,1.13,1.1,1.17,0.876,0.987,1.03,1.22
IA-LM,–,–,–,–,–,–,–,–,–,1.17,1.19,1.11,1.17,0.937,0.922,0.715,1.08
LC-2-ad,0.315,0.608,0.637,0.49,0.565,0.872,0.918,0.768,0.841,0.968,0.875,0.887,0.954,0.983,0.957,0.984,0.865
LCLC-97TM1,0.951,0.804,0.973,0.703,0.782,0.585,0.66,0.542,0.628,0.989,1,0.945,0.955,–,0.796,0.796,0.954
LCLC-103H,0.496,0.432,0.454,0.489,0.318,0.493,0.55,0.527,0.522,0.734,0.785,0.713,0.689,–,–,–,–
LK-2,–,0.273,0.278,0.224,0.293,0.219,0.188,0.187,0.242,1.11,1.16,0.858,1.12,0.77,1.04,0.884,0.932
LOU-NH91,0.473,0.474,0.485,0.522,0.38,0.717,–,0.772,0.679,0.919,0.931,0.982,0.898,0.723,0.82,0.749,0.782
LU99A,0.514,0.605,0.465,0.556,0.483,0.321,0.289,0.329,0.298,0.91,0.854,0.818,0.774,1.11,1.05,0.918,0.977
LXF-289,0.26,0.14,0.275,0.325,0.176,0.878,0.766,1.1,0.838,0.907,1.02,1,0.934,0.901,0.903,0.897,0.927
NCI-H23,0.705,0.762,0.902,0.662,0.901,0.549,0.728,0.581,0.713,1.08,0.954,0.844,0.965,1.13,1.17,0.868,1.34
NCI-H322M,0.218,0.236,0.242,0.241,0.238,0.581,0.534,0.618,0.502,0.859,0.948,0.986,0.887,0.526,0.581,0.668,0.576
NCI-H358,0.149,–,0.136,0.152,0.0966,0.942,0.79,1.04,0.75,0.622,0.573,0.645,0.574,0.473,0.525,0.477,0.388
NCI-H441,0.638,0.649,0.729,0.571,0.55,0.708,0.753,0.649,0.68,0.977,0.943,0.817,0.896,–,–,–,–
NCI-H460,0.548,0.42,0.491,0.286,0.603,1.46,1.16,1.16,0.691,1.08,0.915,0.954,0.959,1.01,1.01,0.916,0.942
NCI-H520,0.192,–,0.183,0.237,0.132,0.253,0.238,0.279,0.282,0.818,0.769,0.682,0.723,0.733,0.976,0.637,0.779
NCI-H522,0.744,0.584,0.731,0.773,0.723,0.673,0.74,0.696,0.732,–,–,–,–,–,–,–,–
NCI-H1299,–,–,–,–,–,–,–,–,–,1.14,1.04,1.04,1.06,0.981,0.967,0.975,0.949
NCI-H1623,0.604,0.515,0.461,0.316,0.244,0.42,0.456,0.528,0.409,0.86,0.851,0.961,0.868,–,–,–,–
NCI-H1648,–,–,–,–,–,0.223,0.249,0.265,0.272,–,–,–,–,–,–,–,–
NCI-H1703,–,–,–,–,–,–,–,–,–,0.359,0.434,0.337,0.309,0.901,1.31,0.906,0.952
NCI-H1792,–,0.759,0.755,–,0.685,–,0.823,0.817,0.775,–,–,–,–,0.978,0.91,0.923,0.934
NCI-H2342,0.314,0.315,0.294,0.279,0.276,0.687,0.649,0.608,0.585,1.15,1.04,1.03,1.05,–,–,–,–
SW 900,–,–,0.683,0.554,0.578,0.547,0.643,0.523,0.764,1.14,0.976,0.864,0.717,–,–,–,–
